This data set can be described thus: decomposition and nitric oxide production at pH 7 and 25° C. The class given is physicochemical. The note with it: for half-life of decomposition: for the carbethoxy compound based on loss of the 252-nm chromophore in the UV spectrum. Here is the method:
The analysis of NO adducts, i.e., polymers containing the nitric oxide-releasing N2O2^− functional group, was done on a nitric oxide analyzer and was patterned after the procedure of Maragos et al., J. Med. Chem., 34, 3242-3247 (1991). A reactor vessel fitted with a septum was charged with a small aliquot of the polymer to be studied and the system was purged with helium for several minutes to remove traces of oxygen. […]
To a solution of 510 mg (1.97 mmol) of 1-(N-acetyl-L-methionyl)piperazine in 1 ml of methanol was added 428 μl (1.97 mmol) of 25% sodium methoxide in methanol. The system was degassed and charged with 40 psi of nitric oxide. After exposure of the solution to NO for 120 h, the pressure was released and the solid product was collected by filtration, washed with ether, and dried to give 27 mg of 1-[4-(N-acetyl-L-methionyl)piperazin-l-yl]-1-oxo-2-hydroxydiazene, sodium salt, as a white solid: UV λmax (ε) 252 nm (12.0 mM^−1 cm^−1).
A solution of 20 g (0.126 mol) of ethyl 1-piperazinecarboxylate in 60 ml of methanol was placed in a Parr bottle. The solution was treated with 27.4 ml (0.126 mol) of 25% sodium methoxide in methanol. The system was evacuated, charged with 40 psi of nitric oxide and kept at 25° C. for 48 h. The white crystalline product was collected by filtration and washed with cold methanol as well as with copious amounts of ether. The product was dried under vacuum to give a 14.5 g (48%) yield of 1-(4-carbethoxypiperazin-1-yl)-1-oxo-2-hydroxydiazene, sodium salt: mp 184-5° C.; UV (0.01 M NaOH) λmax (ε) 252 nm (10.4 mM^−1 cm^−1); NMR (D2O) δ 1.25 (t, 3 H), 3.11 (m, 2 H), 3.68 (m, 2 H), 4.15 (q, 2 H). Anal Calcd. for C6H13N4O4Na: C, 35.00%; H, 5.42%; N, 23.33%; Na, 9.58%. Found: C, 34.87%; H, 5.53%; N, 23.26%; Na, 9.69%. The half-life of this compound at pH 7 and 25° C. was 5 min. This measurement was based on the loss of the 252-nm chromophore in the ultraviolet spectrum.

Where a name gives a salt, the structure may show the parent alone.

Regarding `CSCC[C@H](NC(C)=O)C(=O)N1CCN([N+]([O-])=NO)CC1` [1-[4-(N-acetyl-L-methionyl)piperazin-l-yl]-1-oxo-2-hydroxydiazene, sodium salt], the “moles of NO produced per mole of test agent” value was 1.72 moles of NO per mole of test agent and the half-life of decomposition was found to be 6.9 min.
`CCOC(=O)N1CCN([N+]([O-])=N[O-])CC1.[Na+]` [1-(4-carbethoxypiperazin-1-yl)-1-oxo-2-hydroxydiazene, sodium salt]: the half-life of decomposition is 5 min.
